From paper PMC10819771 (Pharmaceuticals, 2023) come the findings set out here.

As usually defined, the IC50 is the concentration at which inhibition is half-maximal.

One assay concerns Fc-MYCT. As to the kind of experiment: FRET-melting, Fc-MYCT. In kind it is binding. Particulars: ligand 2 μM, DNA 0.2 μM, K+ conditions, pH 7.2.
A further assay concerns BCL-2. Nature of the assay: Native electrospray mass spectrometry, BCL-2. It counts as binding. Particulars: 10 µM DNA, 20 µM ligand; for Bound DNA (%) BCL-2: 100 mM ammonium acetate. How it is done: (§1) These parameters ensured a good signal intensity without disrupting noncovalent complexes, which was verified using d[G4T4G4]2 as a control. Oligonucleotides were purchased lyophilized, and RP-cartridge purified from Eurogentec (Kanaka Eurogentec, Seraing, Belgium), then buffer exchanged with ammonium acetate (5 M; Sigma-Aldrich, Saint-Quentin-Fallavier, France) using Amicon Ultra (3 K cut-off; Merck Millipore, Cork, Ireland). Sample solutions were prepared by diluting the proper volume of oligonucleotide stock solutions to reach 10 µM of DNA and 20 µM of ligand, in 100 mM ammonium acetate. The solutions were incubated for 16 h at 4 °C before analysis. Kd were calculated as already described.

The test system of the next assay is MCF-7. As to the kind of experiment: MTT antiproliferative assay, MCF-7. It counts as cell-based, human. The conditions noted are these: for IC50: Homo sapiens, MCF7, 72 h, MTT, 72 h, breast cancer cells, read-out: IC50 Values (μM) ± SEM MCF-7; for Selectivity Index HEK293/MCF-7: IC50 HEK293 / IC50 MCF-7. The method, boiled down:
(§2)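 Cells seeded 5000/well, treated next day with compounds at 0.1–30.0 µM (six concentrations) for 72 h at 37 °C, 5% CO2 in MEM with 10% FBS. MTT added for 4 h, formazan dissolved in DMSO, absorbance read at 545 nm versus untreated controls; at least two independent runs, 5 parallel wells.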

For a further assay, the system named is HeLa. Nature of the assay: MTT antiproliferative assay, HeLa. Particulars: for IC50: Homo sapiens, HeLa, MTT, 72 h, cervical cancer cells, read-out: IC50 Values (μM) ± SEM HeLa; for Selectivity Index HEK293/HeLa: IC50 HEK293 / IC50 HeLa. In kind it is cell-based, human. The method, boiled down:
as §2
On the technique in general: Formazan colour is commonly taken as a measure of viable cells.

Another assay concerns K562. Nature of the assay: MTS cell proliferation assay, K562. It counts as cell-based, human. The conditions noted are these: for IC50: Homo sapiens, K562, 72 h, MTS, 3-day incubation, leukemia cells, read-out: IC50 Values (μM) ± SEM K562; for Selectivity Index HEK293/K562: IC50 HEK293 / IC50 K562. The method, boiled down:
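K562 cells in RPMI 1640 with 10% FCS were exposed in quadruplicate to 0, 1, 5, 10, 20 and 50 μM compound for 1, 2 and 3 days. Viability was read by MTS conversion after 3 h at 37 °C, measured at 490 nm. CC50 after 3 days was obtained by linear regression (μM ± SD).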

The next assay concerns ds26. Nature of the assay: Native electrospray mass spectrometry, duplex control ds26. In kind it is binding. The conditions noted are these: 10 µM DNA, 20 µM ligand; for Bound DNA (%) ds26: 100 mM ammonium acetate, hairpin duplex control. The protocol: as §1
In assay [1] the test system is c-MYC (DNA, G4) TGAGGGTGGGTAGGGTGGGTAA
Nature of the assay: native ESI-MS. The conditions noted are these: 100 mM NH4+ (ammonium acetate), pH 6.8, 10 µM DNA, 20 µM ligand, first of two successive steps.

In another assay the test system is A2780. As to the kind of experiment: MTT antiproliferative assay, A2780. It counts as cell-based, human. The conditions noted are these: for IC50: Homo sapiens, A2780, MTT, 72 h, ovarian cancer cells, read-out: IC50 Values (μM) ± SEM A2780; for Selectivity Index HEK293/A2780: IC50 HEK293 / IC50 A2780. The method, boiled down:
as §2

The test system of the next assay is FdxT. Nature of the assay: FRET-melting, duplex control FdxT. It counts as binding. Particulars: ligand 2 μM, DNA 0.2 μM, 10 mM KCl, 90 mM LiCl, pH 7.2, hairpin duplex.
The next assay relates to FK-RAST. Nature of the assay: FRET-melting, FK-RAST. In kind it is binding. The conditions noted are these: ligand 2 μM, DNA 0.2 μM, 10 mM KCl, 90 mM LiCl, pH 7.2.
For another assay, the system named is c-MYC. As to the kind of experiment: Native electrospray mass spectrometry, c-MYC. Particulars: 10 µM DNA, 20 µM ligand; for Bound DNA (%) c-MYC: 100 mM ammonium acetate. In kind it is binding. The protocol: as §1
Where [2] appears, read: first binding event (1:1 complex), read-out: Kd1 BCL-2.
Setting [3] is: second binding event (2:1 complex), read-out: Kd2 BCL-2.
The mark [4] stands for this setting: first binding event, read-out: Kd1 ds26.
[5] abbreviates: second binding event, read-out: Kd2 ds26.
Setting [6] is: first binding event (1:1 complex), read-out: Kd1 c-MYC.
Setting [7] is: second binding event (2:1 complex), read-out: Kd2 c-MYC.

SMILES strings stand for the structures. “And” between values parts separate entries of the source, which are not always exact repeats. Equal entries are not always repeated. Where two headings read alike, the source gives them in different places.

Regarding `CN(C)CCCNCc1ccc(-c2nc(-c3ccc(CNCCCN(C)C)cc3)c3cc(-c4ccccc4)ccc3n2)cc1` [Compound 12b, 2,4-bis{4-[(3-dimethylaminopropyl)aminomethyl]phenyl}-6-phenylquinazoline], in the assay with Fc-MYCT, the “ΔT1/2 (°C) Fc-MYCT” value came out at 5.8 ± 0.9 °C. For the same molecule, the “Bound DNA (%) BCL-2” value in the assay on BCL-2 is given as 79%. The Kd was 5.6 µM on BCL-2 (setting [2]); 2.8 µM on BCL-2 (setting [3]); 17 µM at ds26 (setting [4]); 130 µM on ds26 (setting [5]); 5.8 µM at c-MYC (setting [6]); 100 µM on c-MYC (setting [7]). In addition, the IC50 amounted to 0.58 ± 0.02 µM in the assay on MCF-7, 0.82 ± 0.31 µM in the assay on HeLa, 14 ± 0.3 µM in the assay with K562 and 1.2 ± 0.27 µM in the assay with A2780. The “Selectivity Index HEK293/MCF-7” value in the assay on MCF-7 is above 51.7. Besides, the “Selectivity Index HEK293/HeLa” value with HeLa was above 36.6. For the same molecule, in the assay on K562, the “Selectivity Index HEK293/K562” value is listed as above 2.14. The “Bound DNA (%) ds26” value in the assay on ds26 amounted to 48%. In addition, the Kd1 in assay [1] (Kd2 100) is listed as 5.8 µM. Moreover, the “Selectivity Index HEK293/A2780” value in the assay with A2780 was above 25.0. Moreover, the “ΔT1/2 (°C) FdxT” value in the assay on FdxT stood at 0.4 ± 0.3 °C. The “ΔT1/2 (°C) FK-RAST” value with FK-RAST was 17.4 ± 0.6 °C. The “Bound DNA (%) c-MYC” value in the assay on c-MYC worked out at 70%.
For the molecule `CN1CCN(CCCCNCc2ccc(-c3nc(-c4ccc(CNCCCCN5CCN(C)CC5)cc4)c4cc(-c5ccccc5)ccc4n3)cc2)CC1` [Compound 12e, 2,4-bis{4-[(4-(4-methylpiperazin-1-yl)butyl)aminomethyl]phenyl}-6-phenylquinazoline], in the assay on Fc-MYCT, the “ΔT1/2 (°C) Fc-MYCT” value was 19.5 °C and 19.5 ± 1.0 °C. Further, the “Bound DNA (%) BCL-2” value in the assay on BCL-2 stood at 79%. In addition, the Kd amounted to 6.2 µM on BCL-2 (setting [2]); 2.2 µM at BCL-2 (setting [3]); 30 µM at ds26 (setting [4]); 280 µM at ds26 (setting [5]); 4.3 µM on c-MYC (setting [6]); 74 µM on c-MYC (setting [7]). The IC50 in the assay on MCF-7 stood at 1.27 ± 0.01 µM; in the assay with HeLa, 1.27 ± 0.02 µM; in the assay with K562, 13 ± 0.2 µM; with A2780, 2.19 ± 0.41 µM. In the assay with ds26, the “Bound DNA (%) ds26” value came to 36%. This molecule also yielded a Kd1 in assay [1] (Kd2 74) of 4.3 µM. Further, in the assay on FdxT, the “ΔT1/2 (°C) FdxT” value amounted to 5.4 ± 1.6 °C. Moreover, the “ΔT1/2 (°C) FK-RAST” value in the assay on FK-RAST is 33.1 °C and 33.1 ± 2.1 °C. In addition, the “Bound DNA (%) c-MYC” value in the assay with c-MYC came out at 75%.
As to `CN(C)CCCNCc1ccc(-c2cc(-c3ccc(CNCCCN(C)C)cc3)c3cc(-c4ccccc4)ccc3n2)cc1` [Compound 13a, 2,4-bis{4-[(3-dimethylaminopropyl)aminomethyl]phenyl}-6-phenylquinoline], the “ΔT1/2 (°C) Fc-MYCT” value in the assay on Fc-MYCT came to 7.3 ± 1.0 °C. Besides, the “Bound DNA (%) BCL-2” value with BCL-2 turned out to be 92%. The Kd worked out at 1.6 µM on BCL-2 (setting [2]); 0.75 µM at BCL-2 (setting [3]); 14 µM at ds26 (setting [4]); 95 µM on ds26 (setting [5]); 3.8 µM at c-MYC (setting [6]); 36 µM on c-MYC (setting [7]). The IC50 is 0.54 ± 0.01 µM with MCF-7, 0.5 ± 0.01 µM with HeLa, 10 ± 0.4 µM in the assay on K562 and 0.9 ± 0.04 µM in the assay on A2780. In the assay with MCF-7, the “Selectivity Index HEK293/MCF-7” value is recorded as above 55.5. Also, the “Selectivity Index HEK293/HeLa” value in the assay on HeLa is above 60.0. For the same molecule, in the assay on K562, the “Selectivity Index HEK293/K562” value is listed as above 3.0. For the same molecule, the “Bound DNA (%) ds26” value in the assay on ds26 was found to be 53%. The Kd1 in assay [1] (Kd2 36) was found to be 3.8 µM. Moreover, the “Selectivity Index HEK293/A2780” value in the assay on A2780 was above 33.3. Moreover, in the assay on FdxT, the “ΔT1/2 (°C) FdxT” value was 0.4 ± 0.1 °C. For the same molecule, the “ΔT1/2 (°C) FK-RAST” value in the assay on FK-RAST stood at 15.0 ± 0.3 °C. Further, in the assay with c-MYC, the “Bound DNA (%) c-MYC” value is reported as 78%.
On to `CN1CCN(CCCCNCc2ccc(-c3cc(-c4ccc(CNCCCCN5CCN(C)CC5)cc4)c4cc(-c5ccccc5)ccc4n3)cc2)CC1` [Compound 13d, 2,4-bis{4-[(4-(4-methylpiperazin-1-yl)butyl)aminomethyl]phenyl}-6-phenylquinoline], for which the “ΔT1/2 (°C) Fc-MYCT” value in the assay on Fc-MYCT came to 10.6 ± 0.7 °C. Moreover, in the assay with BCL-2, the “Bound DNA (%) BCL-2” value is on record as 33%. Moreover, the Kd on BCL-2 (setting [2]) worked out at 53 µM; at BCL-2 (setting [3]) it was 20 µM; on ds26 (setting [4]) it was 85 µM; at ds26 (setting [5]), 460 µM; at c-MYC (setting [6]), 20 µM; on c-MYC (setting [7]) it was 440 µM. Moreover, the IC50 was found to be 1.62 ± 0.09 µM in the assay with MCF-7, 2.27 ± 0.89 µM with HeLa, 14 ± 0.3 µM in the assay on K562 and 2.1 ± 0.09 µM in the assay with A2780. The “Bound DNA (%) ds26” value in the assay on ds26 is 18%. Further, the Kd1 in assay [1] (Kd2 440) came out at 20 µM. Further, the “ΔT1/2 (°C) FdxT” value in the assay with FdxT was 0.8 ± 0.2 °C. Besides, the “ΔT1/2 (°C) FK-RAST” value in the assay on FK-RAST came out at 12.7 ± 2.2 °C. Moreover, the “Bound DNA (%) c-MYC” value in the assay on c-MYC is 44%.
